From patent US8309608B2, “Use of eNOS transcription enhancers in the cell therapy of ischemic heart diseases” (Sanofi-Aventis Deutschland GmbH, priority 2003, dated 2012)

Experiments:
[1] = tested on: eNOS promoter (eNOS transcription); test: luciferase assay for activation of eNOS transcription; type: cell-based; details: human endothelial cell line with eNOS promoter-luciferase construct, 18 hours incubation; for TIR(max) value (maximum transcription induction ratio): ratio vs solvent alone; for EC50: read-out: EC50 value of transcription induction ratio
Protocol: Activation of eNOS transcription was measured as described in detail in Li et al., Activation of protein kinase C alpha and/or epsilon enhances transcription of the human endothelial nitric oxide synthase gene, Mol. Pharmacol. 1998, 53:630-637. Briefly, a 3.5 kB long fragment 5′ of the starting codon of the eNOS gene was cloned, sequenced and cloned in firefly luciferase expression plasmids to monitor activation of the eNOS promoter by reporter gene activity. A human endothelial cell line stable transfected and expressing this promoter-reporter construct was used for compound testing. Cells were incubated for 18 hours with compounds. All compounds were dissolved before in sterile dimethylsulfoxide (DMSO). A final concentration of 0.5% DMSO in complete medium was allowed. Induction of reporter gene expression in these cells was measured using a standard luciferase assay system (Promega, Madison, Wis., USA; Cat. No E150) according to the manufacturer's instructions. Luciferase induction in cells incubated with compounds were compared to those incubated with solvent alone. The ratio of both activities (transcription induction ratio, TIR) was plotted as a function of compound concentration. Typically, TIR values started at low concentrations at a ratio of 1, indicating no compound effect, and extended up to a maximum TIR value TIR(max) which indicates the increase of the eNOS transcription. EC50 values of transcription induction ratios as a function of compound concentration were determined graphically.

[2] = tested on: bone marrow stem and progenitor cells; test: migratory capacity of bone marrow stem and progenitor cells in response to SDF-1 (modified Boyden chamber); type: cell-based, human; details: 100 ng/ml SDF-1
Protocol: For incubation with the eNOS transcription enhancer 4-fluoro-N-(indan-2-yl)benzamide, 1 ml of a suspension of 1000000 stem and progenitor cells in 1 ml of X-Vivo 10 cell culture medium was mixed with 1 μl of a solution of 4-fluoro-N-(indan-2-yl)benzamide in dimethylsulfoxide (DMSO) which had been prepared by dissolution of 1.275 mg of 4-fluoro-N-(indan-2-yl)benzamide in 1 ml of DMSO. The concentration of 4-fluoro-N-(indan-2-yl)benzamide in the resulting mixture was 5 μM. For incubation with the eNOS transcription enhancer 4-fluoro-N-(indan-2-yl)benzamide and the eNOS inhibitor N^G-monomethyl-L-arginine (L-NMMA), in addition to 4-fluoro-N-(indan-2-yl)benzamide, L-NMMA (Sigma, St. Louis, Mo., USA) was added to the cell suspension to give a resulting mixture with a 4-fluoro-N-(indan-2-yl)benzamide concentration of 5 μM and an L-NMMA concentration of 1 mM. Incubation was carried for 18 hours at a temperature of 37° C. under an atmosphere of air containing 5% of carbon dioxide. The cells were isolated by centrifugation, washed two times with PBS and resuspended in X-Vivo 10.
For assessing the migratory capacity of bone marrow stem and progenitor cells, a total of 1×10^6 bone marrow stem and progenitor cells were resuspended in 250 μl of X-Vivo 10 and placed in the upper chamber of a modified Boyden chamber filled with matrigel (BioCoat invasion assay, 8 μm pore size, Becton Dickinson Labware, Two Oak Park, Bedford, Mass., USA). Then, the chamber was placed in a 24-well culture dish containing 500 μl endothelial basic medium (EBM) supplemented with either phosphate buffered saline (PBS), 50 ng/ml VEGF, or 100 ng/ml SDF-1. After 24 hours incubation at 37° C., transmigrated cells were counted.

[3] = tested on: athymic NMRI nude mice, hind limb ischemia; test: in vivo hind limb ischemia model in mice (laser Doppler blood flow after injection of pretreated cells); details: 5×10^5 cells/mouse i.v., measured after two weeks
Protocol: For incubation with the eNOS transcription enhancer 4-fluoro-N-(indan-2-yl)benzamide, 1 ml of a suspension of 1000000 stem and progenitor cells in 1 ml of X-Vivo 10 cell culture medium was mixed with 1 μl of a solution of 4-fluoro-N-(indan-2-yl)benzamide in dimethylsulfoxide (DMSO) which had been prepared by dissolution of 1.275 mg of 4-fluoro-N-(indan-2-yl)benzamide in 1 ml of DMSO. The concentration of 4-fluoro-N-(indan-2-yl)benzamide in the resulting mixture was 5 μM. […]
The neovascularization capacity of bone marrow stem and progenitor cells was investigated in a murine model of hind limb ischemia by use of 8 to 10 week old athymic NMRI nude mice (The Jackson Laboratory, Bar Harbor, Me., USA) weighing 18 to 22 g. […] After two weeks the limb perfusion was determined. Specifically, the ischemic (right) limb/normal (left) limb blood flow ratio was measured using a laser Doppler blood flow meter (Laser Doppler Perfusion Imager System, MoorLDI-Mark 2, Moor Instruments, Wilmington, Del., USA). […] After twice recording laser Doppler color images, the average perfusions of the ischemic and non-ischemic limb were calculated on the basis of colored histogram pixels. To minimize variables including ambient light and temperature, calculated perfusion was expressed as the ratio of ischemic to non-ischemic hind limb perfusion. […]

Row | SMILES | melting point | TIR(max) value (maximum transcription induction ratio) [1] | EC50 [1] | migratory response to SDF-1 ([2]; cells from the healthy controls, 18 hours of treatment with 5 μM compound) | migratory response to SDF-1 ([2]; cells from the healthy controls, 18 hours of treatment with 5 μM compound, listed as 4-fluoro-(N-indan-2-yl)benzamide) | migratory response to SDF-1 ([2]; cells from the patients, 18 hours of treatment with 5 μM compound and 1 mM L-NMMA) | migratory response to SDF-1 ([2]; cells from the patients, 18 hours of treatment with 5 μM compound) | laser Doppler-derived relative blood flow (ratio ischemic limb/normal limb) ([3]; cells from the patients treated for 18 hours with 5 μM compound and 1 mM L-NMMA) | laser Doppler-derived relative blood flow (ratio ischemic limb/normal limb) ([3]; cells from the patients treated for 18 hours with 5 μM compound)
1 | O=C(NC1Cc2ccccc2C1)c1ccc2c(c1)OC(F)(F)O2 [2,2-difluorobenzo[1,3]dioxol-5-carboxylic acid indan-2-ylamide] | 147.5 °C | 2.7 | 140 nM |  |  |  |  |  | 
2 | O=C(NC1Cc2ccccc2C1)c1ccc(F)cc1 [4-fluoro-N-(indan-2-yl)benzamide] | 167 °C | 4.10 | 800 nM | 111.2±38.5 ×1000 migrated cells | 74.3±21.5 ×1000 migrated cells | 23.9±7.4 ×1000 migrated cells | 74.0±20.7 ×1000 migrated cells | 39.7 ± 10.3% | 59.1 ± 11.6%
